The test system of one data set is Escherichia coli. The data set is described as follows: microbe, parasite or virus in culture.
Another data set deals with Cytochrome P450 2C9 (Homo sapiens, UniProt P11712).
For data set [1], the target named is T1, Short transient receptor potential channel 4 (Mus musculus, UniProt Q9QUQ5).
T1 sequence (Q9QUQ5 whole entry): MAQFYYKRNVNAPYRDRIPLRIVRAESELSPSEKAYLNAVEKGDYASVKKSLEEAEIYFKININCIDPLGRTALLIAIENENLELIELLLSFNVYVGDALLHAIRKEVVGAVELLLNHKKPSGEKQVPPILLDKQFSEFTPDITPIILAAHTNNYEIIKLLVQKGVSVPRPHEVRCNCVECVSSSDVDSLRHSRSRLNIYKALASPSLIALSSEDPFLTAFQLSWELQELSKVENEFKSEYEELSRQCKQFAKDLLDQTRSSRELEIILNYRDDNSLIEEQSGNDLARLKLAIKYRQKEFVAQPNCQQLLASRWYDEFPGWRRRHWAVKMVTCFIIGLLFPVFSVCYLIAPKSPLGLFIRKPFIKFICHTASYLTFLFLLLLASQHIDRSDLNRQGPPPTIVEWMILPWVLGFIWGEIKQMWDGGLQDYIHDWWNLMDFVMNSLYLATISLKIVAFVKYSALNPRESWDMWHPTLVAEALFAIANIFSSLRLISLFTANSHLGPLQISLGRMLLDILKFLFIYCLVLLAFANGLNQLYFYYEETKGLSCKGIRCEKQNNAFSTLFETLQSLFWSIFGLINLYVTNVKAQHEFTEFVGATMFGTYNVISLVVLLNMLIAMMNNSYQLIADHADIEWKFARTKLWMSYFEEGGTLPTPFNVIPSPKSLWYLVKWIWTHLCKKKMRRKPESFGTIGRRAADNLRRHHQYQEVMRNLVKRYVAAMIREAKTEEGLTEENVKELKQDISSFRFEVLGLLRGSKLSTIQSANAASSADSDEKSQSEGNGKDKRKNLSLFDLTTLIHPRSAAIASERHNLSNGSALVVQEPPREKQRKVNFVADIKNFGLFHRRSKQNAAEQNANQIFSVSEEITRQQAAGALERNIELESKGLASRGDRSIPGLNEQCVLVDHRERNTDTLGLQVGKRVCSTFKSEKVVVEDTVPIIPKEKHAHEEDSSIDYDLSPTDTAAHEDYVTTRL
The data set is described as follows: block of DAMGO-driven TRPC4 calcium entry – cell-based, HEK293 TRPC4/mu-opioid, Fluo-4 calcium, dose response (AID 434942).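 Note: potency of inhibitors blocking the TRPC4 calcium response.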 The format is functional.

For data set [2], the target named is Glucose-6-phosphate 1-dehydrogenase (Homo sapiens, UniProt P11413). The data set is described as follows: inhibition of Homo sapiens G6PD, dose series – biochemical, fluorescence, selectivity assay for P. falciparum G6PD inhibitor project, dose response (AID 504792). It counts as functional.
For the next data set, the target named is T2, Protein RecA (Mycobacterium tuberculosis, UniProt P9WHJ3).
T2 sequence (P9WHJ3 whole entry): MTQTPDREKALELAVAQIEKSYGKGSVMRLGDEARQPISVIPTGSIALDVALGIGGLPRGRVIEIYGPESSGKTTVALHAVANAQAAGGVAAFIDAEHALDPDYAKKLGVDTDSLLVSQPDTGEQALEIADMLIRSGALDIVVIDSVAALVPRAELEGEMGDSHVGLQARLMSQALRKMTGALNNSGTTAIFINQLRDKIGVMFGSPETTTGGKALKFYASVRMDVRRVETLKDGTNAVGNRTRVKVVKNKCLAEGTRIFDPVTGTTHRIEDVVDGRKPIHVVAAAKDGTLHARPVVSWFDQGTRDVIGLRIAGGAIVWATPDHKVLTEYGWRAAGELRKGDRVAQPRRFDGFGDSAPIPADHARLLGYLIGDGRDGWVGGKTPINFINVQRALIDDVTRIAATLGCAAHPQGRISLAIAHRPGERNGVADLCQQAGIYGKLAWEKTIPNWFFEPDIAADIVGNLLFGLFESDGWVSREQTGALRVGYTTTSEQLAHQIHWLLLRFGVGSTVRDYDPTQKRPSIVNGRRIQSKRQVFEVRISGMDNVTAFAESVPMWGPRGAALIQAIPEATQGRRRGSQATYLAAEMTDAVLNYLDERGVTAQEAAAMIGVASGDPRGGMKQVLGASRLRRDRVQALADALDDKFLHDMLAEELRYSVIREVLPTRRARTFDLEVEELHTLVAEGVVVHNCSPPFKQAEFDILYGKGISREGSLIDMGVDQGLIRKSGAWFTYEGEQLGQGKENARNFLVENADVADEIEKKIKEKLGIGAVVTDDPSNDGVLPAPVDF
Briefly: Fluorescence Cell-Free Homogeneous Dose Retest to Identify Inhibitors of RecA-Intein Splicing Activity. [Related pubchem assays (depositor defined):AID2097, AID2223, AID489010, AID492950]. The format is functional.

Data set [3] addresses T3, Replicative DNA helicase DnaB (Mycobacterium tuberculosis, UniProt P9WMR3).
T3 sequence (P9WMR3 whole entry): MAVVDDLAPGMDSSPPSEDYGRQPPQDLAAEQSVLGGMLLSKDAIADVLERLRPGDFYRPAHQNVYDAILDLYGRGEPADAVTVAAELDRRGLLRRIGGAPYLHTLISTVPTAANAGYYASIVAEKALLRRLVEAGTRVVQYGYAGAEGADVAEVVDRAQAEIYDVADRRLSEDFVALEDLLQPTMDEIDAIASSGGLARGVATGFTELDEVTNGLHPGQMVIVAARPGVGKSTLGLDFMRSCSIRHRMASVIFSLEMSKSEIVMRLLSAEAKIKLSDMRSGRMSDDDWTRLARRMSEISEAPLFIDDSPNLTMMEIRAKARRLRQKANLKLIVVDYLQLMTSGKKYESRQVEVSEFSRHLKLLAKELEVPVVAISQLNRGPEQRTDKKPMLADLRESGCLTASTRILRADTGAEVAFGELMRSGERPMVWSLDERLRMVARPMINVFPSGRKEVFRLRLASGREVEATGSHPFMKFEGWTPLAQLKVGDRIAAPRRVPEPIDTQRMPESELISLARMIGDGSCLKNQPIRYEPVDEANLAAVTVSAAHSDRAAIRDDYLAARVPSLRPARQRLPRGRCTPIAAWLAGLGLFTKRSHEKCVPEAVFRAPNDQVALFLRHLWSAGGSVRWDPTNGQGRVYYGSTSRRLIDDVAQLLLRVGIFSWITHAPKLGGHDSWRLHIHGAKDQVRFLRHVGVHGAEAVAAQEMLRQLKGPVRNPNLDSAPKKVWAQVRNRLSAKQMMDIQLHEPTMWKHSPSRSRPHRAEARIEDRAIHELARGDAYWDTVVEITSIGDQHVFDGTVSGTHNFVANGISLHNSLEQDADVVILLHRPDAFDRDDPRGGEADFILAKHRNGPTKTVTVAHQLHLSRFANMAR
The data set is described as follows: DnaB intein splicing inhibitors, dose response, biochemical, cell-free fluorescence (AID 449749). The format is functional.

The target of data set [4] is DNA dC->dU-editing enzyme APOBEC-3G (Homo sapiens, UniProt Q9HC16). Briefly: Dose Response confirmation of small molecule APOBEC3G DNA Deaminase Inhibitors via a fluorescence-based single-stranded DNA deaminase assay. [Related pubchem assays (depositor defined):AID493012, AID493028]. It counts as functional.
Data set [5] in a line: viability of HCT116 lacking mutant beta-catenin – cell-based, human colon tumor, dose response (AID 1045).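 Note: HCT116 colon tumor cells with beta catenin knocked out; cells exposed to compound for 60 hours.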 It counts as functional.
Data set [6] in a line: viability of PTEN-deleted HCT116 cells – cell-based, HCT116 PTEN knockout, dose response (AID 1047).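 Note: HCT116 colon tumor cells with PTEN knocked out; cells exposed to compound for 60 hours before readout; potency for loss of cell viability measured by luminescence.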 It counts as functional.
The target in the next data set is Cytochrome P450 2C19 (Homo sapiens, UniProt P33261). The data set is described as follows: Cytochrome panel assay with activity outcomes. Panel member name: p450-cyp2c19 Compounds with AC50 equal or less than 10 uM are considered active. The format is functional. The following applies: read-out: AC50.
Data set [7] addresses T4, Corticotropin-releasing factor receptor 2/Corticotropin-releasing factor-binding protein (Homo sapiens, UniProt P24387+Q13324).
T4 sequence (Q13324 whole entry): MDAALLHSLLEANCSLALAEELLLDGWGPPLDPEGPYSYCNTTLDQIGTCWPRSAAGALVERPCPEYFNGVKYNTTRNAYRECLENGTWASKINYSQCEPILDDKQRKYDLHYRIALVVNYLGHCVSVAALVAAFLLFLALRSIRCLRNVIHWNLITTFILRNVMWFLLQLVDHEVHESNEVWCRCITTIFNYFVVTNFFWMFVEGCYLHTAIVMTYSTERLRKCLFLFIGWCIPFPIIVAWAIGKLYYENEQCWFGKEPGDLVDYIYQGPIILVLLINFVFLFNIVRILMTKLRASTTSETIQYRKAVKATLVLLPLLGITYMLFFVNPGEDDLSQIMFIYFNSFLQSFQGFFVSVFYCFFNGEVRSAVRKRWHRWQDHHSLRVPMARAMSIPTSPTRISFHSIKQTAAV
T4 sequence (P24387 whole entry): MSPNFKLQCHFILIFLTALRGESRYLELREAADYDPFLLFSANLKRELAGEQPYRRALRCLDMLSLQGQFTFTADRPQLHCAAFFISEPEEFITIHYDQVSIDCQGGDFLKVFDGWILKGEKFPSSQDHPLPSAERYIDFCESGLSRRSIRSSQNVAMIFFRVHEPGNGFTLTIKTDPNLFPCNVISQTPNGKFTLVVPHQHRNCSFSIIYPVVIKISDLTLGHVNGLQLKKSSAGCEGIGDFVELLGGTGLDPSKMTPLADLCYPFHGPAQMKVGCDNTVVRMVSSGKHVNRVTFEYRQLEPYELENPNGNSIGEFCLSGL
Briefly: activators of CRF receptor 2 with binding protein – uHTS hits, confirmation (AID 602473). It counts as functional. The following applies: read-out: EC50_Mean.

Another data set has as its target Cytochrome P450 3A4 (Homo sapiens, UniProt P08684).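 Note: CYP3A4 tested as one member of a cytochrome P450 panel screen.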
The target of data set [8] is T4, Corticotropin-releasing factor receptor 2/Corticotropin-releasing factor-binding protein. The data set is described as follows: Dose Response confirmation of uHTS hits for small molecule antagonists of the CRF-binding protein and CRF-R2 receptor complex. Particulars: read-out: IC50_Mean. The format is functional.
The next data set deals with Cytochrome P450 2D6 (Homo sapiens, UniProt P10635).

Active and inactive are the calls of the source.

Sequence of Cytochrome P450 2C9 (P11712 whole entry): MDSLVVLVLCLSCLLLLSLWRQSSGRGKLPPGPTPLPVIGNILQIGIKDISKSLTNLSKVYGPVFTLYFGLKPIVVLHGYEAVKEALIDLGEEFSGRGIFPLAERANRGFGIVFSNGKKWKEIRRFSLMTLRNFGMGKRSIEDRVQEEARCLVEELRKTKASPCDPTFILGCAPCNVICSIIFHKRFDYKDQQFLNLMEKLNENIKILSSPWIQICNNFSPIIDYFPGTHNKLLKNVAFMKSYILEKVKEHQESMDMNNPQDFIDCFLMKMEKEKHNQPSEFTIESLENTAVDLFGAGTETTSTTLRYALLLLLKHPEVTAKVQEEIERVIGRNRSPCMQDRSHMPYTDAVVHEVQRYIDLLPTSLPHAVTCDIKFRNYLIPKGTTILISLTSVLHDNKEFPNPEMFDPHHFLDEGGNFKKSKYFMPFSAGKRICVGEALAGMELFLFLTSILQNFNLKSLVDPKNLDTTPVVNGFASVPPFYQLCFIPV
Sequence of Cytochrome P450 2D6 (P10635 whole entry): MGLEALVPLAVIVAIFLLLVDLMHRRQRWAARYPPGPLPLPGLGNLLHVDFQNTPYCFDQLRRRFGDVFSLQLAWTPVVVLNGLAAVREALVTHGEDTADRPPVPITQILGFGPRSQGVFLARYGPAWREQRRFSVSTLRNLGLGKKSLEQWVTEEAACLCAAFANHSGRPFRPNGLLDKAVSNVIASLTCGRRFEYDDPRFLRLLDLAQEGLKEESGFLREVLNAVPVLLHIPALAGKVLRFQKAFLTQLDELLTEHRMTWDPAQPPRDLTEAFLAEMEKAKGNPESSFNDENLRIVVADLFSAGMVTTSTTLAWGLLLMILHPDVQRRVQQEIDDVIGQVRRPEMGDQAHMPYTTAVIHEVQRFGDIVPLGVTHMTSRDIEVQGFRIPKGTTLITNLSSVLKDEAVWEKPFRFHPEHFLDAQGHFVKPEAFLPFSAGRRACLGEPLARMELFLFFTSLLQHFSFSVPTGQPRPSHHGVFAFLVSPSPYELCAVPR
Sequence of DNA dC->dU-editing enzyme APOBEC-3G (Q9HC16 whole entry): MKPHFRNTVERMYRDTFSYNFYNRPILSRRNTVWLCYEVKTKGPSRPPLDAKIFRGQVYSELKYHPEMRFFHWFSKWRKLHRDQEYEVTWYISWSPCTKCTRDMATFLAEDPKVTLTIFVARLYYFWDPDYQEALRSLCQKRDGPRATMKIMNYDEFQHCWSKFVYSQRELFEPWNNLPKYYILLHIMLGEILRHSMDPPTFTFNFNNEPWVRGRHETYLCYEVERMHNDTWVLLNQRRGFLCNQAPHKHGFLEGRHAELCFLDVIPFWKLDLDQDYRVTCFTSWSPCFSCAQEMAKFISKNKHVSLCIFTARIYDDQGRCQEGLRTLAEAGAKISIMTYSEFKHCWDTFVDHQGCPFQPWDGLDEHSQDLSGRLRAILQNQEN
Sequence of Cytochrome P450 2C19 (P33261 whole entry): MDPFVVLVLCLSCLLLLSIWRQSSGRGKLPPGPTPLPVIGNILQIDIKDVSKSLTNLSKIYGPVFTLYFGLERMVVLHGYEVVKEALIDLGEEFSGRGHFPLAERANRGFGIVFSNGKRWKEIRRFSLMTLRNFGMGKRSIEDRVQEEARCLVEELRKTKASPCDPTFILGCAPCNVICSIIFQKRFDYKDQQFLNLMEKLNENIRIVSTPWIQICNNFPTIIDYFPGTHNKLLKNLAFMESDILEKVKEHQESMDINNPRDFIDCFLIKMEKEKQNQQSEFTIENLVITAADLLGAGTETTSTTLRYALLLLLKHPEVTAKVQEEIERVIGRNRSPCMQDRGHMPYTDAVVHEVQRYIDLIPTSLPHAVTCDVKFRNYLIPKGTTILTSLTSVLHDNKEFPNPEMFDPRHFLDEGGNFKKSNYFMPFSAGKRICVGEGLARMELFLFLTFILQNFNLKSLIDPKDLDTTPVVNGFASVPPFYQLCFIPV
Sequence of Glucose-6-phosphate 1-dehydrogenase (P11413 whole entry): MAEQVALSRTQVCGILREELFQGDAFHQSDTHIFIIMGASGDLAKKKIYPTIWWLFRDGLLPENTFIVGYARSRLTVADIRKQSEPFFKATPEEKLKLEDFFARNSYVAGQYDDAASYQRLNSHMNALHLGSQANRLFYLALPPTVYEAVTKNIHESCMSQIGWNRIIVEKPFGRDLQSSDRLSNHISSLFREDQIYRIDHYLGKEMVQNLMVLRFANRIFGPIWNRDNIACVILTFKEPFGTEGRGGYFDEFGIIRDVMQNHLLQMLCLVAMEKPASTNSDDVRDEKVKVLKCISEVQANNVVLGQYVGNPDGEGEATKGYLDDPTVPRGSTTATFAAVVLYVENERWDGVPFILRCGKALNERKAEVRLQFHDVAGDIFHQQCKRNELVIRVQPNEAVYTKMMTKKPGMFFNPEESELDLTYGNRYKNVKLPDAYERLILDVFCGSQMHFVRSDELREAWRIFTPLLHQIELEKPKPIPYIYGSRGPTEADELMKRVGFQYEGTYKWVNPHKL
Sequence of Cytochrome P450 3A4 (P08684 whole entry): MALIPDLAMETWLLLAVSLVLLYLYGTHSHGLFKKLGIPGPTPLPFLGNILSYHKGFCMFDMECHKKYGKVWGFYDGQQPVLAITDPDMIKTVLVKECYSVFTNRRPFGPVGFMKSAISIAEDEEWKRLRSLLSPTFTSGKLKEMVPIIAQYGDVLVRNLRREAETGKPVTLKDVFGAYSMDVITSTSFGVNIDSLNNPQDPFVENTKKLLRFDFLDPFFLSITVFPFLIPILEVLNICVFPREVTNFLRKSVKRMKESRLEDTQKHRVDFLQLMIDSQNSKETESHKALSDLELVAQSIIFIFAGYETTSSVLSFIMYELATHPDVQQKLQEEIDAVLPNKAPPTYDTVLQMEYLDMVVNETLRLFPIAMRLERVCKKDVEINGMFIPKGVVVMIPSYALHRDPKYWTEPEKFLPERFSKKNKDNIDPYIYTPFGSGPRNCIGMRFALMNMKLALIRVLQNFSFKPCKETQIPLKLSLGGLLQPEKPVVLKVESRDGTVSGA

On to `O=C(c1cccnc1)C1CCCN(Cc2nc(Cc3ccccc3)no2)C1` (configuration not stated), for which the AC50 (in general, the midpoint of the concentration-response curve, whichever way the signal moves) with Escherichia coli is 42 µM (active).

For the compound `CN(C)/C=N/c1ncc(C(=O)c2ccc3ccccc3c2)s1`, the AC50 entry at Cytochrome P450 2C9 is listed as “inconclusive”.

For `C[C@H](Br)C(=O)c1ccc2cc(Br)c3ccccc3c2c1`, the AC50 entry at Cytochrome P450 2C9 was “inconclusive”.

`OCC1(CCCc2ccccc2)CCN(Cc2cc(F)ccc2F)CC1`: the EC50 in data set [1] was 4.22 µM (active).

For `COc1ccc2[nH]c(NCc3ccccc3)nc2c1`, in [1], the EC50 is 1.68 µM (active).

Turning to `CCNc1ccccc1CP(=O)(c1ccccc1)c1ccccc1O` (configuration not stated), the IC50 in [2] was 42.6 µM (inactive). The EC50 on Protein RecA was 1.25 µM (active). Besides, in data set [3], the concentration at half-maximal activity (AC50) is 10.4 µM (active).

In the case of `Oc1nc(N2CCCCC2)nc2c1CCCC2`, the AC50 in the data set with Escherichia coli is 24.9 µM (active).

Regarding `O=C(Nc1ccc(Cl)c(C(F)(F)F)c1)NC1CC2CCCC(C1)N2C1CC1` (configuration not stated), the half-maximal activity concentration (AC50) in the data set with Escherichia coli is 25.7 µM (active).

On to `Sc1nc2ccccc2n1Cc1ccccc1`, for which the IC50 in [4] is 37.2 µM (active).

Consider `Cc1ccc(-c2nc3ccccc3s2)cc1NC(=S)NC(=O)c1cccc2ccccc12`, for which the AC50 in the data set on Escherichia coli was 36.4 µM (active). In addition, the EC50 was 12.1 µM (active) in [5] and 14.1 µM (active) in data set [6].

For `COc1ccc(NC(=O)C(=O)NNC(=O)c2cccs2)c(OC)c1`, the figures for the concentration at half-maximal activity (AC50) at Cytochrome P450 2C19, on Cytochrome P450 2C9 and at Cytochrome P450 3A4 were 39.8 µM (inconclusive), “inconclusive” and 17.8 µM (inconclusive), respectively. Also, the EC50 in data set [7] is > 53 µM (inactive). Besides, the IC50 in data set [8] was > 47.1 µM (inactive).

Turning to `CC(NC(=O)CSc1nc2sc3c(c2c(=O)n1-c1ccccc1)CCCC3)c1ccccc1` (configuration not stated), the AC50 in the data set with Escherichia coli was 107 µM (active).

As to `COc1ccc(NC(=O)CCSc2cc(C)c3ccccc3n2)cc1`, the AC50 result at Cytochrome P450 2C9 was “inconclusive”; at Cytochrome P450 2D6 it was 31.6 µM (inconclusive).

For the compound `CCCCn1c(NCCO)nc2ccccc21`, in data set [1], the EC50 was 1.68 µM (active).

For the compound `O=C(CCCSc1ccc(Cl)cc1)Nc1cc(S(=O)(=O)N2CCOCC2)ccc1O`, the IC50 in [4] was 33.2 µM (active).

For `CNc1nc(-c2cccnc2)nc2ccccc12`, the AC50 is 39.8 µM (inconclusive) on Cytochrome P450 2C19, “inconclusive” at Cytochrome P450 2C9 and 39.8 µM (inconclusive) on Cytochrome P450 2D6.

The values are drawn from ChEMBL document CHEMBL1201862, “PubChem BioAssay data set” (2004).
